Test results from US10294202B2, “Pyrrolidinones as herbicides” (FMC Corporation, priority 2013, dated 2019).

Experiments:
[1] = system: sedge, umbrella; assay: Test B flooded paddy test; assay type: in vivo, Cyperus difformis; details: 500 g ai/ha, Flood; scale of 0 to 100 where 0 is no effect and 100 is complete control
Outline: (§1)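 Treatment was made at the 2-leaf stage by dosing the standing floodwater, kept 3 cm above soil level for the whole test. Greenhouse exposure lasted 13 to 15 days. Response is a visual percent rating relative to controls, where a dash indicates no test result.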

[2] = system: crabgrass, large; assay: Test C pre-/postemergence herbicide test; assay type: in vivo, Digitaria sanguinalis
Outline: (§2)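 Plants grown and held in a greenhouse for 13 to 15 days post-spray, then rated 0–100 by visual comparison with controls. Pre treatments targeted seeds in loam and sand; post treatments targeted 1- to 4-leaf plants in peat-based potting medium.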

[3] = system: velvetleaf; assay: Test C pre-/postemergence herbicide test; assay type: in vivo, Abutilon theophrasti
Outline: as §2

[4] = system: barnyardgrass; assay: Test C pre-/postemergence herbicide test; assay type: in vivo, Echinochloa crus-galli
Outline: as §2

[5] = system: waterhemp; assay: Test C pre-/postemergence herbicide test; assay type: in vivo, Amaranthus rudis
Outline: as §2

[6] = system: giant foxtail; assay: Test A pre-/postemergence herbicide test; assay type: in vivo, Setaria faberii
Outline: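 Approximately 10 days after treatment in the greenhouse, plants were compared with untreated controls and given a 0–100 visual injury rating. Applications: preemergence directed soil spray; postemergence on 2–10 cm plants at the one- to two-leaf stage.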

[7] = system: johnsongrass; assay: Test C pre-/postemergence herbicide test; assay type: in vivo, Sorghum halepense
Outline: as §2

[8] = system: oat, wild; assay: Test C pre-/postemergence herbicide test; assay type: in vivo, Avena fatua; details: Postemergence
Outline: as §2

[9] = system: ryegrass, Italian; assay: Test C pre-/postemergence herbicide test; assay type: in vivo, Lolium multiflorum
Outline: as §2

[10] = system: ragweed; assay: Test C pre-/postemergence herbicide test; assay type: in vivo, Ambrosia elatior
Outline: as §2

[11] = system: barnyardgrass; assay: Test B flooded paddy test; assay type: in vivo, Echinochloa crus-galli; details: 500 g ai/ha, Flood; scale of 0 to 100 where 0 is no effect and 100 is complete control
Outline: as §1

[12] = Postemergence, 31 g ai/ha, scale 0 to 100 (0 no effect, 100 complete control)
[13] = Postemergence, 62 g ai/ha, scale 0 (no effect) to 100 (complete control)
[14] = Postemergence, 125 g ai/ha, scale 0 to 100 (0 no effect, 100 complete control)
[15] = Postemergence, 250 g ai/ha, scale 0 to 100 (0 no effect, 100 complete control)
[16] = Preemergence, 31 g ai/ha, scale 0 to 100, 0 is no effect and 100 is complete control
[17] = Preemergence, 62 g ai/ha, scale 0 to 100 (0 no effect, 100 complete control)
[18] = Preemergence, 125 g ai/ha, scale 0 to 100
[19] = Preemergence, 125 g ai/ha, scale 0 to 100 (0 no effect, 100 complete control)
[20] = Postemergence, 500 g ai/ha, 0 to 100 scale (0 no effect, 100 complete control)
[21] = Preemergence, 125 g ai/ha, 0 to 100 scale where 0 is no effect and 100 is complete control
[22] = 31 g ai/ha, scale 0 to 100 (0 no effect, 100 complete control)
[23] = 62 g ai/ha, scale 0 (no effect) to 100 (complete control)
[24] = 125 g ai/ha, scale 0 to 100 (0 no effect, 100 complete control)
[25] = Postemergence, 16 g ai/ha, scale 0 to 100 (0 no effect, 100 complete control)
[26] = Preemergence, 16 g ai/ha, scale 0 to 100

Cc1cccc(NC(=O)C2C(=O)NCC2c2cccc(C(F)(F)F)c2)c1 (stereo not shown) [Compound 317]
Plant response rating, Sedge, Umbrella [1]: 0 | Plant response rating, Crabgrass, Large [2, 12]: 0 | Plant response rating, Crabgrass, Large [2, 13]: 25 | Plant response rating, Crabgrass, Large [2, 14]: 45 | Plant response rating, Crabgrass, Large [2, 15]: 50 | Crabgrass, Large plant response rating [2, 16]: 95 | Crabgrass, Large plant response rating [2, 17]: 95 | Plant response rating, Crabgrass, Large [2, 18]: 95 | Plant response rating (scale of 0 to 100), Crabgrass, Large ([2]; Preemergence, 250 g ai/ha): 98 | Plant response rating, Velvetleaf [3, 12]: 0 | Plant response rating, Velvetleaf [3, 13]: 0 | Plant response rating, Velvetleaf [3, 14]: 0 | Plant response rating, Velvetleaf [3, 15]: 0 | Velvetleaf plant response rating [3, 17]: 0 | Plant response rating, Velvetleaf [3, 18]: 0 | Plant response rating, Barnyardgrass [4, 12]: 0 | Plant response rating, Barnyardgrass [4, 13]: 0 | Plant response rating, Barnyardgrass [4, 14]: 25 | Plant response rating, Barnyardgrass [4, 15]: 70 | Barnyardgrass plant response rating [4, 16]: 90 | Barnyardgrass plant response rating [4, 17]: 90 | Plant response rating, Barnyardgrass [4, 19]: 95 | Plant response rating (scale of 0 to 100; 0 is no effect, 100 is complete control), Barnyardgrass ([4]; Preemergence, 250 g ai/ha): 95 | Plant response rating, Waterhemp [5, 12]: 0 | Plant response rating, Waterhemp [5, 13]: 0 | Plant response rating, Waterhemp [5, 14]: 20 | Plant response rating, Waterhemp [5, 15]: 0 | Waterhemp plant response rating [5, 17]: 0 | Plant response rating, Waterhemp [5, 18]: 10 | Plant response rating, Foxtail, Giant ([6]; Postemergence, 125 g ai/ha, visual rating on 0 to 100 scale (0 no effect, 100 complete control), approx. 10 days): 80 | Plant response rating, Foxtail, Giant [6, 20]: 90 | Plant response rating, Foxtail, Giant [6, 21]: 90 | Foxtail, Giant plant response rating ([6]; Preemergence, 500 g ai/ha, visual rating on 0 to 100 scale (0 no effect, 100 complete control)): 90 | Plant response rating, Johnsongrass [7, 12]: 0 | Plant response rating, Johnsongrass [7, 13]: 0 | Plant response rating, Johnsongrass [7, 14]: 0 | Plant response rating, Johnsongrass [7, 15]: 5 | Johnsongrass plant response rating [7, 16]: 0 | Johnsongrass plant response rating [7, 17]: 0 | Plant response rating, Johnsongrass [7, 18]: 0 | Plant response rating (scale of 0 to 100), Johnsongrass ([7]; Preemergence, 250 g ai/ha): 30 | Plant response rating, Oat, Wild [8, 22]: 0 | Plant response rating, Oat, Wild [8, 23]: 0 | Plant response rating, Oat, Wild [8, 24]: 0 | Plant response rating, Oat, Wild ([8]; 250 g ai/ha, scale 0 to 100 (0 no effect, 100 complete control)): 0 | Plant response rating, Ryegrass, Italian [9, 12]: 0 | Plant response rating, Ryegrass, Italian [9, 13]: 0 | Plant response rating, Ryegrass, Italian [9, 14]: 0 | Plant response rating, Ryegrass, Italian [9, 15]: 0 | Ryegrass, Italian plant response rating [9, 17]: 0 | Plant response rating, Ryegrass, Italian [9, 18]: 0 | Plant response rating, Ragweed [10, 12]: 0 | Plant response rating, Ragweed [10, 13]: 0 | Plant response rating, Ragweed [10, 14]: 25 | Plant response rating, Ragweed [10, 15]: 40 | Ragweed plant response rating [10, 17]: 0 | Plant response rating, Ragweed [10, 18]: 0 | Plant response rating, Barnyardgrass [11]: 75

CN1CC(c2cccc(C(F)(F)F)c2)C(C(=O)Nc2ccccc2F)C1=O (stereo not shown) [Compound 277]
Plant response rating, Sedge, Umbrella [1]: 0 | Plant response rating, Crabgrass, Large [2, 25]: 5 | Plant response rating, Crabgrass, Large [2, 12]: 15 | Plant response rating, Crabgrass, Large [2, 13]: 65 | Plant response rating, Crabgrass, Large [2, 14]: 70 | Crabgrass, Large plant response rating [2, 16]: 98 | Crabgrass, Large plant response rating [2, 17]: 100 | Plant response rating, Crabgrass, Large [2, 19]: 100 | Plant response rating, Crabgrass, Large [2, 26]: 95 | Plant response rating, Velvetleaf [3, 25]: 0 | Plant response rating, Velvetleaf [3, 12]: 0 | Plant response rating, Velvetleaf [3, 13]: 0 | Plant response rating, Velvetleaf [3, 14]: 15 | Velvetleaf plant response rating [3, 16]: 0 | Velvetleaf plant response rating [3, 17]: 0 | Plant response rating, Velvetleaf [3, 19]: 35 | Plant response rating, Velvetleaf [3, 26]: 0 | Plant response rating, Barnyardgrass [4, 25]: 5 | Plant response rating, Barnyardgrass [4, 12]: 15 | Plant response rating, Barnyardgrass [4, 13]: 70 | Plant response rating, Barnyardgrass [4, 14]: 80 | Barnyardgrass plant response rating [4, 16]: 95 | Barnyardgrass plant response rating [4, 17]: 98 | Plant response rating, Barnyardgrass [4, 19]: 98 | Plant response rating, Barnyardgrass [4, 26]: 95 | Plant response rating, Waterhemp [5, 25]: 5 | Plant response rating, Waterhemp [5, 12]: 5 | Plant response rating, Waterhemp [5, 13]: 5 | Plant response rating, Waterhemp [5, 14]: 5 | Waterhemp plant response rating [5, 16]: 35 | Waterhemp plant response rating [5, 17]: 50 | Plant response rating, Waterhemp [5, 19]: 55 | Plant response rating, Waterhemp [5, 26]: 0 | Plant response rating, Foxtail, Giant ([6]; Postemergence, 125 g ai/ha, 0 to 100 scale, 0 is no effect, 100 is complete control): 90 | Plant response rating, Foxtail, Giant [6, 20]: 90 | Plant response rating, Foxtail, Giant [6, 21]: 90 | Plant response rating, Foxtail, Giant ([6]; preemergence, 500 g ai/ha, 0 to 100 scale, 0 is no effect and 100 is complete control): 90 | Plant response rating, Johnsongrass [7, 25]: 0 | Plant response rating, Johnsongrass [7, 12]: 0 | Plant response rating, Johnsongrass [7, 13]: 0 | Plant response rating, Johnsongrass [7, 14]: 10 | Johnsongrass plant response rating [7, 16]: 40 | Johnsongrass plant response rating [7, 17]: 65 | Plant response rating, Johnsongrass [7, 19]: 85 | Plant response rating, Johnsongrass [7, 26]: 0 | Plant response rating, Oat, Wild ([8]; 16 g ai/ha, scale 0 to 100 (0 no effect, 100 complete control)): 0 | Plant response rating, Oat, Wild [8, 22]: 0 | Plant response rating, Oat, Wild [8, 23]: 0 | Plant response rating, Oat, Wild [8, 24]: 5 | Plant response rating, Ryegrass, Italian [9, 25]: 0 | Plant response rating, Ryegrass, Italian [9, 12]: 0 | Plant response rating, Ryegrass, Italian [9, 13]: 5 | Plant response rating, Ryegrass, Italian [9, 14]: 35 | Ryegrass, Italian plant response rating [9, 16]: 40 | Ryegrass, Italian plant response rating [9, 17]: 35 | Plant response rating, Ryegrass, Italian [9, 19]: 40 | Plant response rating, Ryegrass, Italian [9, 26]: 30 | Plant response rating, Ragweed [10, 25]: 10 | Plant response rating, Ragweed [10, 12]: 40 | Plant response rating, Ragweed [10, 13]: 35 | Plant response rating, Ragweed [10, 14]: 40 | Ragweed plant response rating [10, 16]: 0 | Ragweed plant response rating [10, 17]: 0 | Plant response rating, Ragweed [10, 19]: 40 | Plant response rating, Ragweed [10, 26]: 0 | Plant response rating, Barnyardgrass [11]: 90
